What was measured:
[1] = system: Human neurons; assay: inhibition of neurodegeneration by hydrogen peroxide (Alamar Blue respiration); format: cell-based; settings: hydrogen peroxide 50 uM for up to 6 hrs, FIG. 1
Method: Dysfunctional neurons were initiated using any of the above agents or using hydrogen peroxide at 1-100 μM concentration. Using a dye that measures metabolic activity of the cells, such as MTT or ALAMARBLUE®, we determined the reduction of respiratory capacity of the cells, which indicated neuron dysfunction. The ability of neurogenic agents to inhibit hydrogen peroxide-induced reduction in cellular respiration was used as a measure of inhibition of neuronal dysfunction, a potential step that lead to degeneration.
Certain compounds were further analyzed to determine their ability to inhibit neurodegeneration by hydrogen peroxide. Human neurons are treated with hydrogen peroxide (50 uM) for up to 6 hrs and then neuronal loss is measured using Alamar Blue respiration.

[2] = system: human neuronal progenitors cells; assay: in vitro neurogenesis test; format: cell-based; settings: MAP-2 staining on day 11; differentiation media; vehicle 0.2% DMSO in DMEM/F12
Method: The in vitro neurogenesis test was performed using human neuronal progenitors cells. By way of background, the human neuronal progenitor cells can be cultured in media and have the potential to produce mature functional neurons. The neurogenesis factor in the culture media can promote the number of the progenitor cells which differentiate into neurons. Indeed, it is a widely accepted in vitro model to test a chemical's neurogenetic property.
Cells were obtained as human neuronal progenitors from a commercial source and were grown for up to three passages or at any time differentiated to potentially produce mature functional neurons in culture. Following two passages to expand the cells, progenitors were seeded into multi-well microplates and the media were changed to differentiation media (minus serum and mitogen). Within 2 hrs of this media change, a vehicle, positive control or test compound were added to each well. Also, they were added with every further media change (50% volume change every other day). Control wells contained cells and vehicle (0.2% DMSO in DMEM/F12). […]
The cells were stained using MAP-2, a neuronal marker, on day 11. Then, each test compound was assessed for the ability to promote an increase in neuron number and compared with the positive control, leukemia inhibitory factor (LIF).

| SMILES | loss of respiration (neuronal loss) when added along with hydrogen peroxide [1] | Effects of compounds on the increase in the neuron numbers compared with the vehicle control, % of Control [2] [%] |
| --- | --- | --- |
| CCN1CCCC1Cn1cnc2c(-c3ccc(OC)cc3)nsc2c1=O (stereo not shown) [NNI-A, 6-((1-ethylpyrrolidin-2-yl)methyl)-3-(4-methoxyphenyl)isothiazolo[4,5-d]pyrimidin-7(6H)-one] | less loss of respiration |  |
| CCN1CCCC1Cn1cnc2c(-c3ccc(OC)cc3)nsc2c1=O (stereo not shown) [3-(4-Methoxyphenyl)-6-[(1-ethylpyrrolidin-2-yl)methyl]-isothiazolo[4,5-d]pyrimidin-7(6H)-one] |  | 107 |
| COc1ccc(-c2nsc3c(=O)n(CCCN4CCOCC4)cnc23)cc1 [3-(4-Methoxyphenyl)-6-[3-(4-morpholinyl)propyl]-isothiazolo[4,5-d]pyrimidin-7-(6H)-one] |  | 115 |
| CCN1CCCC1Cn1cnc2c(-c3ccc(F)cc3)nsc2c1=O (stereo not shown) [NNI-B, 6-((1-ethylpyrrolidin-2-yl)methyl)-3-(4-fluorophenyl)isothiazolo[4,5-d]pyrimidin-7(6H)-one] | less loss of respiration |  |
